The subject of test [1] is intact retinas from P12 wild type mice. The experiment in a line: P12 mouse retinal explant culture, qPCR for rod gene expression. In kind it is cell-based. The settings on record: P12 explants, 1 μM, 2 days, vs DMSO. An excerpt: To identify functional Nr2e3 antagonists, compounds were cheminformatically searched and structural analogs of a putative Nr2e3 interacting compound with unknown function were collected. See FIGS. 2 and 4 for the structures of the compounds. The collected compounds were then screened in a physiologically relevant primary culture assay using intact retinas from postnatal day 12-13 (P12-13) C57BL/6 mice for suppression of Rho expression (See FIG. 6A). After a 2 day culture period with media containing DMSO or compounds at 1 μM, the retinas were collected and assessed Rho expression by qPCR. Rho was chosen because it is a well-described target of Nr2e3 in rod photoreceptors. […] This analysis also provided an initial structure-activity relationship.
Nr2e3 loss-of-function mutations lead to a reduction in rod gene expression. To determine whether the same was true for PR1 (FIG. 6D), explant cultures of P12 retina as above were treated and assayed for other rod photoreceptor genes. After 2 days in culture, PR1 decreased the expression of the rod specific genes Nrl, Nr2e3, Rho, Gnat1, and Pde6b compared to DMSO treatment by qPCR analysis (FIG. 6C). […] To determine the dose-response relationship between PR1 concentration and expression of rod genes, retinas from P12 mice were explanted in media containing DMSO or 0.1, 1, 5, or 10 μM PR1 for 2-3 days and assayed Nrl, Nr2e3, and Rho expression by qPCR. […] PR1 was tested to determine whether it could cause a reduction in Rho expression in human rod photoreceptors as well. Pairs of 113 day post-conception retinas were explanted in media with DMSO or 10 μM PR1 for 7 or 23 days. After 7 and 23 days in culture, PR1 decreased the expression of Rho compared to DMSO treatment (FIG. 6F), similar to the effect observed in mouse retinal explants.
Intact retinas without RPE from mice of various strains and ages as indicated were explanted on 0.4 μm pore tissue culture inserts (Millipore) as previously described (Ueki, Y., et al., P53 is required for the developmental restriction in Muller glial proliferation in mouse retina. Glia, 2012. 60(10): p. 1579-89; Ueki, Y., et al., A transient wave of BMP signaling in the retina is necessary for Muller glial differentiation. Development, 2015. 142(3): p. 533-43. Full media (DMEM/F12 (1:1) containing 1% dialyzed FBS, 1% Pen Strep, 0.3% D+ glucose, 2% B27, and 1% N2) changes were performed every other day and small molecules were used at 0.1 μM to 10 μM. Where indicated, EdU (Invitrogen) was included in the media at 5 μg/mL and visualized by staining with the Click-iT EdU Alexa Fluor kit (Thermo Fisher Scientific). For human retinal explant cultures, tissue from 113 day post-conception fetuses was obtained from the University of Washington Birth Defects Laboratory and explanted on 0.4 μm pore tissue culture inserts (Millipore) in media (Neurobasal A with 1% FBS, 1% Pen Strep, 1% N2, 1% B27) containing 10 μM Photoregulin1 or an equal volume of DMSO.
RNA was isolated using TRIzol (Invitrogen) and cDNA was synthesized using the iScript cDNA synthesis kit (Bio-Rad) following an intervening DNase treatment with RQ1 RNase-free DNase (Promega). SSO Fast (Bio-Rad) was used for quantitative real-time PCR. For analysis, values were normalized to Gapdh and ΔΔCt between DMSO and compound-treated samples was expressed as percent of DMSO treated controls (100*2^ΔΔCt). Two-way Student's t-tests were performed on ΔCt values.

In test [2] the test system is Thrb (Trβ2). Briefly: Cone gene expression, Thrb (FIG. 5).

Structures are written as SMILES.

On to `Cc1cccc(C(=O)NC(C(=O)Nc2ncc(C)s2)C(C)C)c1` (stereo not shown) [CA95], for which the “relative rhodopsin (Rho) expression” value in test [1] is listed as “reducing rhodopsin expression”. Besides, the “cone gene expression, Thrb (Trβ2)” value in test [2] was “increase”.

On to `Cc1cc(C)cc(NC(=O)CCc2nc3sc4c(c3c(=O)[nH]2)CCC4)c1` [CA8801], for which, in test [1], the “relative rhodopsin (Rho) expression” value was “reducing rhodopsin expression”.

For the compound `Cc1cccc(C(=O)NCC(=O)Nc2ncc(C)s2)c1` [CA9513], the “relative rhodopsin (Rho) expression” value in test [1] is “reducing rhodopsin expression”.

Values taken from patent US10849904B2, “Methods for treatment of retinal disease by photoreceptor gene expression modulation” (University of Washington, priority 2015, dated 2020).
